According to patent US10188858B2, “Method and device for treating a tissue with a high frequency electromagnetic field” (University of Cincinnati, priority 2013, dated 2019):

Legend:
MEK-cRaf complex = conditions: high frequency EF in the presence of 10 μM U0126, compared to low frequency or no-EF groups
Description: (§1) Murine microvascular endothelial cells were isolated from the lungs of C57 mice (Jackson Laboratory, Maine, USA) as described previously. Cells were doubly sorted using PECAM-1- and ICAM-2-conjugated magnetic beads (Invitrogen Corporation, CA, USA) and cultured in medium M199 (HyClone, UT, USA) supplemented with 10% fetal bovine serum (FBS; Atlanta Biologicals, GA, USA), 1% antibiotic/antimycotic (AB/AM; Atlanta Biologicals, USA), 1% heparin (Sigma-Aldrich, MO, USA) and 1Ong/mL endothelial growth factor supplement (Sigma-Aldrich, MO, USA). Cells from passages 4-9 were used. All experiments were conducted in the culture medium (medium M199, 10% FBS, 1% antibiotic/antimycotic and 1% heparin) without additional growth factor supplementation.
(§2) Capillary morphogenesis, and MAPK pathways activation were quantified following 12 hours of EF exposure, and the analyses of VEGF expression, cell proliferation and apoptosis were conducted up to 24 hours of EF exposure. The experimental groups included endothelial cells exposed to high frequency EF, low frequency EF and a group not exposed to EF.
After EF exposure, cells were lysed using buffer containing 20 mM Tris-HCl, 150 mM NaCl, 1 mM Na2EDTA, 1 mM EGTA, 1% Triton, 2.5 mM sodium pyrophosphate, 1 mM beta-glycerophosphate, 1 mM Na3VO4, 1 μg/ml leupeptin and 1 mM phenylmethylsulfonyl fluoride (PMSF). The total protein concentration in each sample lysate was determined using CoomassiePlus Assay Kit (Thermo Fisher Scientific, IL, USA). 10 μg of total protein was used for all MAPK pathway ELISAs. The total and phosphorylated levels of ERK, MEK, p38 and JNK proteins were quantified using appropriate sandwich ELISA kits (Cell Signaling Technology, MA, USA). MEK-cRaf complex levels and free (unbound) MEK levels were quantified according to previously described protocols with modifications. The total MEK levels are presented in optical densities and phosphorylated MEK, MEK-cRaf and pMEK-cRaf levels are normalized to total MEK levels. For negative control, β-actin (Invitrogen, USA) was immunoprecipitated from the lysate and subjected to ELISAs. […]

MEK = experiment: Total and phosphorylated MEK levels (sandwich ELISA) with inhibitors; assay type: cell-based, C57 mice
Description: as §1, §2
After EF exposure, cells were lysed using buffer containing 20 mM Tris-HCl, 150 mM NaCl, 1 mM Na2EDTA, 1 mM EGTA, 1% Triton, 2.5 mM sodium pyrophosphate, 1 mM beta-glycerophosphate, 1 mM Na3VO4, 1 μg/ml leupeptin and 1 mM phenylmethylsulfonyl fluoride (PMSF). The total protein concentration in each sample lysate was determined using CoomassiePlus Assay Kit (Thermo Fisher Scientific, IL, USA). 10 μg of total protein was used for all MAPK pathway ELISAs. The total and phosphorylated levels of ERK, MEK, p38 and JNK proteins were quantified using appropriate sandwich ELISA kits (Cell Signaling Technology, MA, USA). MEK-cRaf complex levels and free (unbound) MEK levels were quantified according to previously described protocols with modifications. The total MEK levels are presented in optical densities and phosphorylated MEK, MEK-cRaf and pMEK-cRaf levels are normalized to total MEK levels. For negative control, β-actin (Invitrogen, USA) was immunoprecipitated from the lysate and subjected to ELISAs. All ELISA assays were performed in duplicates or triplicates, with all experiments repeated at least N=6 times.
To determine the role of VEGF signaling in EF-mediated angiogenic responses, experiments were repeated in the presence of 0.1 μg/mL soluble anti-mouse VEGF blocking antibody (R&D Systems, MN, USA), or 5 μM SU5416 (Sigma-Aldrich, MO, USA), a specific pharmacological VEGFR2inhibitor, or in the presence of 10 μM U0126 MEK inhibitor (Sigma-Aldrich, MO, USA). […] To examine the role of PI3K, Ca^2+ and eNOS signaling in EF-mediated MEK activation, cells were treated with 10 μM LY294002 (PI3K inhibitor), 10 μM BAPTA (Ca^2+ chelator), or 200 μM Nω-Nitro-L-arginine methyl ester hydrochloride (L-NAME, eNOS inhibitor),respectively, and the total and phosphorylated MEK levels were measured using ELISA. All inhibitors were added to the culture supernatant and pre-incubated for one hour to equilibrate respective target blocking prior to EF exposure. All analyses were done in duplicates/triplicates, and all inhibitor experiments were repeated at least N=3 times.

VEGF = VEGF protein release by endothelial cells (ELISA) with inhibitors; assay type: cell-based, C57 mice
Description: Cells from passages 4-9 were used. […] VEGF and PIGF are two major angiogenic cytokines acting through VEGF receptors pathway. VEGF binds to both VEGFR1 and VEGFR2 receptors, although signals through VEGFR2. In contrast, PIGF which only binds to and signals through VEGFR1. To determine the effect of EF on the VEGF and PIGF protein release by endothelial cells, culture medium samples (at least N=6 separate experiments) were used to measure VEGF and PIGF protein levels using appropriate ELISA kits (R&D Systems, MN, USA).

[1] = tested on: Murine microvascular endothelial cells; experiment: In vitro capillary morphogenesis (nanofiber-based angiogenesis assay) with inhibitors; assay type: cell-based, C57 mice
Method: Cells from passages 4-9 were used. […] Capillary morphogenesis was assessed using nanofiber-based angiogenesis assay previously developed in the lab, in which endothelial cells seeded on RAD16-II peptide nanofiber hydrogel (SynBioSci Corporation, CA, USA) undergo spontaneous capillary morphogenesis with clearly identifiable lumens in the absence of external angiogenic growth factors. Endothelial cells were seeded on the surface of 1% (w/v) hydrogel in cell culture inserts (Millipore, MA, USA) at a seeding density of 10^5 cells/cm^2. Cells seeded on 5% gelatin-coated inserts were used as a negative control. Cells were labeled with CellTracker dye (Invitrogen, USA) before seeding or with Phalloidin-TRITC (Sigma Aldrich, St Louis, Mo., USA). After EF exposure, samples (at least N=10 separate EF exposure experiments per group) were fixed with 2% formaldehyde, and images of the sample surface (n=5 per sample) were captured at 20× magnification using an inverted fluorescent microscope (Olympus IX81; Olympus, Pa., USA). The characteristic size of capillary-like networks was determined using correlation analysis and custom-written MATLAB code (The Math Works, MA, USA).

[2] = 10 μM U0126, all experimental groups, compared to no inhibitor controls
[3] = 10 μM U0126, high frequency EF vs low frequency EF and no-EF groups

N#CC(=C(/N)Sc1ccccc1N)/C(C#N)=C(\N)Sc1ccccc1N [U0126]
free MEK levels (MEK-cRaf complex): increased | phosphorylation of MEK-cRaf complex (pMEK-cRaf) (MEK-cRaf complex): reduced | protein levels of MEK-cRaf complex (MEK-cRaf complex): reduced | total concentration of MEK (MEK; presence of 10 μM U0126): did not affect | VEGF release by endothelial cells (VEGF; [2]): significantly reduced | effect of high frequency EF on VEGF release (VEGF; [3]): effectively reversed | capillary morphogenesis (network size) [1, 2]: significantly reduced | effect of high frequency EF on capillary morphogenesis [1, 3]: effectively reversed

O=C(O)CN(CC(=O)O)c1ccccc1OCCOc1ccccc1N(CC(=O)O)CC(=O)O [BAPTA]
MEK phosphorylation levels (MEK; 10 μM BAPTA, high frequency EF and no-EF groups): significantly reduced | phosphorylated MEK levels in high frequency EF group compared to no-EF controls (MEK; in the presence of 10 μM BAPTA): lower

COC(=O)[C@@H](N)CCCNC(=N)N[N+](=O)[O-].Cl [L-NAME, Nω-Nitro-L-arginine methyl ester hydrochloride]
EF-induced increase in pMEK (MEK; 200 μM L-NAME, high frequency EF): abolished | base pMEK levels (MEK; 200 μM L-NAME, no-EF controls): did not affect

Cc1cc(C)c(/C=C2\C(=O)Nc3ccccc32)[nH]1 [SU5416]
high frequency EF-induced MEK phosphorylation (MEK; 5 μM SU5416, 7.5 GHz EF vs low frequency and no-EF controls): did not block | VEGF release (VEGF; 5 μM SU5416, all experimental groups, including no-EF controls): significantly reduced | capillary morphogenesis ([1]; 5 μM SU5416, all experimental groups, including no-EF controls, 12 hours): completely abolished
